The source made the active and inactive calls. No cut-off for these calls is given here.
What was measured:
HeLa [1] = test: Photocytotoxicity against human HeLa cells preincubated for 1 hr prior to illumination measured after 24 hrs post illumination by MTT assay; type: functional, cell-based
MDA-MB-231 [2] = test: Induction of ROS generation in human MDA-MB-231 cells using CM-H2DCFDA as probe at 6 uM after 24 hrs post photoirradiation by FACS flow cytometry (reference value: 13.7 +/- 2.3 %); type: functional
MDA-MB-231 [3] = test: Cytotoxicity against human MDA-MB-231 cells assessed as cell viability at 10 to 50 uM after 24 hrs by MTT assay in absence of light; type: cell-based; settings: mda-mb-231, 24 h
[4] = Cytotoxicity against human SCC131 cells assessed as cell viability at 10 to 50 uM after 24 hrs by MTT assay in absence of light; type: cell-based; settings: scc131, 24 h
HCT-116 [5] = test: Cytotoxicity against human HCT116 cells assessed as cell viability at 10 to 50 uM after 24 hrs by MTT assay in absence of light; type: cell-based; settings: hct-116, 24 h
MDA-MB-231 [6] = test: Induction of apoptosis in human MDA-MB-231 cells assessed as decrease in mitochondrial membrane potential at 12 uM preincubated for 1 hr followed by photoirradiation measured after 24 hrs by JC1 staining based fluorescence microscopy (reference value: 12.1 +/- 4.9 %); type: functional; design: scale not given: the % may be the effect or the level left
MDA-MB-231 [7] = test: Induction of apoptosis in human MDA-MB-231 cells assessed as chromatin condensation at 12 uM preincubated for 1 hr followed by photoirradiation measured after 24 hrs by Hoechst staining based fluorescence microscopy (reference value: 10.4 +/- 1.5 %); type: functional
MDA-MB-231 [8] = test: Induction of apoptosis in human MDA-MB-231 cells assessed as chromatin condensation at 6 uM preincubated for 1 hr followed by photoirradiation measured after 24 hrs by Hoechst staining based fluorescence microscopy (reference value: 10.4 +/- 1.5 %); type: functional
MDA-MB-231 [9] = test: Induction of apoptosis in human MDA-MB-231 cells assessed as PARP cleavage at 6 and 12 uM preincubated for 1 hr followed by photoirradiation by immunoblotting; type: functional, cell-based
MDA-MB-231 [10] = test: Photocytotoxicity against human MDA-MB-231 cells preincubated for 1 hr prior to illumination measured after 24 hrs post illumination by MTT assay; type: functional, cell-based
SiHa [11] = test: Photocytotoxicity against human SiHa cells preincubated for 1 hr prior to illumination measured after 24 hrs post illumination by MTT assay; type: functional, cell-based
HeLa [12] = test: Cytotoxicity against human HeLa cells assessed as cell viability at 10 to 50 uM after 24 hrs by MTT assay in absence of light; type: cell-based
MDA-MB-231 [13] = test: Induction of apoptosis in human MDA-MB-231 cells assessed as early apoptotic cells at 6 uM preincubated for 1 hr followed by photoirradiation by annexin V-FITC/propidium iodide staining based flow cytometry (reference value: 3.5 +/- 0.41 %); type: functional
MCF7 [14] = test: Cytotoxicity against human MCF7 cells assessed as cell viability at 10 to 50 uM after 24 hrs by MTT assay in absence of light; type: cell-based; settings: mcf7, 24 h
SiHa [15] = test: Cytotoxicity against human SiHa cells assessed as cell viability at 10 to 50 uM after 24 hrs by MTT assay in absence of light; type: cell-based
[16] = Cytotoxicity against human SCC172 cells assessed as cell viability at 10 to 50 uM after 24 hrs by MTT assay in absence of light; type: cell-based; settings: scc172, 24 h
MIA PaCa-2 [17] = test: Cytotoxicity against human MIAPaCa2 cells assessed as cell viability at 10 to 50 uM after 24 hrs by MTT assay in absence of light; type: cell-based; settings: mia paca-2, 24 h
MCF7 [18] = test: Photocytotoxicity against human MCF7 cells preincubated for 1 hr prior to illumination measured after 24 hrs post illumination by MTT assay; type: functional, cell-based
MDA-MB-231 [19] = test: Induction of ROS generation in human MDA-MB-231 cells using CM-H2DCFDA as probe at 12 uM after 24 hrs post photoirradiation by FACS flow cytometry (reference value: 13.7 +/- 2.3 %); type: functional
MDA-MB-231 [20] = test: Induction of ROS generation in human MDA-MB-231 cells using CM-H2DCFDA as probe after 24 hrs post photoirradiation by FACS flow cytometry; type: functional, cell-based
MIA PaCa-2 [21] = test: Photocytotoxicity against human MIAPaCa2 cells preincubated for 1 hr prior to illumination measured after 24 hrs post illumination by MTT assay; type: functional, cell-based
MDA-MB-231 [22] = test: Induction of apoptosis in human MDA-MB-231 cells assessed as chromatin condensation preincubated for 1 hr followed by photoirradiation measured after 24 hrs by Hoechst staining based fluorescence microscopy; type: functional, cell-based
MDA-MB-231 [23] = test: Induction of apoptosis in human MDA-MB-231 cells assessed as PARP cleavage at 12 uM after 1 hr by immunoblotting in absence of light; type: cell-based; settings: mda-mb-231, 1 h
HCT-116 [24] = test: Photocytotoxicity against human HCT116 cells preincubated for 1 hr prior to illumination measured after 24 hrs post illumination by MTT assay; type: functional, cell-based
[25] = Photocytotoxicity against human SCC131 cells preincubated for 1 hr prior to illumination measured after 24 hrs post illumination by MTT assay; type: functional, cell-based
MDA-MB-231 [26] = test: Ratio of IC50 for human HeLa cells to IC50 for human MDA-MB-231 cells; type: functional
MDA-MB-231 [27] = test: Induction of apoptosis in human MDA-MB-231 cells assessed as early apoptotic cells at 12 uM preincubated for 1 hr followed by photoirradiation by annexin V-FITC/propidium iodide staining based flow cytometry (reference value: 3.5 +/- 0.41 %); type: functional
MDA-MB-231 [28] = test: Induction of apoptosis in human MDA-MB-231 cells at 12 uM after 1 hr by annexin V-FITC/propidium iodide staining based flow cytometry in absence of light; type: cell-based; settings: mda-mb-231, 1 h
[29] = Photocytotoxicity against human SCC172 cells preincubated for 1 hr prior to illumination measured after 24 hrs post illumination by MTT assay; type: functional, cell-based
MDA-MB-231 [30] = test: Induction of apoptosis in human MDA-MB-231 cells assessed as decrease in mitochondrial membrane potential at 6 uM preincubated for 1 hr followed by photoirradiation measured after 24 hrs by JC1 staining based fluorescence microscopy (reference value: 12.1 +/- 4.9 %); type: functional; design: scale not given: the % may be the effect or the level left

O=S(=O)([O-])c1ccc(-c2c3cc(c(-c4ccc(S(=O)(=O)[O-])cc4)c4ccc([nH]4)c(-c4ccc(S(=O)(=O)[O-])cc4)c4nc(c(-c5ccc(S(=O)(=O)[O-])cc5)c5ccc2[nH]5)C=C4)N=C3)cc1.[Na+].[Na+].[Na+].[Na+]
IC50 (HeLa [1]): 25 µM | Activity (MDA-MB-231 [2]): 61.8% | Activity (MDA-MB-231 [3]): Non-toxic | Activity [4]: Non-toxic | Activity (HCT-116 [5]): Non-toxic | Activity (MDA-MB-231 [6]): 88.5% | Activity (MDA-MB-231 [7]): 91% | Activity (MDA-MB-231 [8]): 72% | Activity (MDA-MB-231 [9]): Active | IC50 (MDA-MB-231 [10]): 6 µM | IC50 (SiHa [11]): 20 µM | Activity (HeLa [12]): Non-toxic | Activity (MDA-MB-231 [13]): 65.8% | Activity (MCF7 [14]): Non-toxic | Activity (SiHa [15]): Non-toxic | Activity [16]: Non-toxic | Activity (MIA PaCa-2 [17]): Non-toxic | IC50 (MCF7 [18]): 12 µM | Activity (MDA-MB-231 [19]): 79.5% | Activity (MDA-MB-231 [20]): Dose-dependent effect | IC50 (MIA PaCa-2 [21]): 8 µM | Activity (MDA-MB-231 [22]): Dose-dependent effect | Activity (MDA-MB-231 [23]): Non-toxic | IC50 (HCT-116 [24]): 8 µM | IC50 [25]: 13 µM | Ratio IC50 (MDA-MB-231 [26]): 5 | Activity (MDA-MB-231 [27]): 83.9% | Activity (MDA-MB-231 [28]): Non-toxic | IC50 [29]: 11 µM | Activity (MDA-MB-231 [30]): 69.7%

— ChEMBL document CHEMBL2157897, “Meso-tetrakis(p-sulfonatophenyl)N-confused porphyrin tetrasodium salt: a potential sensitizer for photodynamic therapy” (J Med Chem, 2012)
